The values that follow are results of earlier work, collected in patent US20250222110A1, “METHODS AND COMPOSITIONS FOR TREATMENT OF AGE-RELATED CATARACTS” (LIVIONEX, Inc., priority 2024, published 2025).

For this data set the following is noted: 79° F.

Take `CS(C)(=O)=O` [MSM, methylsulfonylmethane]: the water solubility is 34 % w/v.
